According to patent US20250195504A1, “NALTREXAMINE DERIVATIVES BEARING 5-MEMBER HETEROCYCLIC RING SYSTEMS AND OPIOID RECEPTOR MODULATORS” (VIRGINIA COMMONWEALTH UNIVERSITY, priority 2022, published 2025):
Structures can show the parent of a compound that is named as a salt.

Legend:
[1] = molecular target: h5-HT2b (Homo sapiens, UniProt P41595); assay: side effect profiling, h5-HT2b; assay type: binding; conditions: at 10 uM
[2] = molecular target: hNK3 (Homo sapiens, UniProt P29371); assay: side effect profiling, hNK3; assay type: binding
[3] = molecular target: Na channel; assay: side effect profiling, Na channel; assay type: binding
[4] = molecular target: T1, DOR (Homo sapiens, UniProt P41143); assay: competitive radioligand binding assay, DOR ([3H]diprenorphine, CHO cell membranes); conditions: Tables A, B; read-out: Binding Affinity Ki (nM) ± SEM, DOR
T1 construct: expressed in transfected cells; host or cells: CHO

[5] = molecular target: MOR (Mus musculus, UniProt P42866); conditions: read-out: Binding Affinity Ki (nM) ± SEM, MOR; Tables A, B
[6] = Caco-2 permeability; conditions: human, Caco-2, pH 7.4
[7] = molecular target: KOR (Mus musculus, UniProt P33534); assay: competitive radioligand binding assay, KOR ([3H]diprenorphine, CHO cell membranes); design: expressed in transfected cells; host or cells: CHO; conditions: Tables A, B; read-out: Binding Affinity Ki (nM) ± SEM, KOR

SMILES | h5-HT2b binding [1] | Ki [2] [nM] | hNK3 binding ([2]; at 10 uM) [%] | Ki [3] [nM] | Na channel binding ([3]; at 10 uM) [%] | Ki [4] [nM] | Ki [5] [nM] | efflux ratio at 1 h, 10 μM [6] | Ki [7] [nM]
O=C(N[C@H]1CC[C@@]2(O)[C@H]3Cc4ccc(O)c5c4[C@@]2(CCN3CC2CC2)[C@H]1O5)c1cccs1 [Example 1 compound 25, 17-Cyclopropylmethyl-3,14β-dihydroxy-4,5α-epoxy-6α-(2′-thienylcarboxamido)morphinan hydrochloride] | h5-HT2b (78% at 10 uM) | 3900 | 56 | 9900 | 55 | – | – | – | –
O=C(N[C@H]1CC[C@@]2(O)[C@H]3Cc4ccc(O)c5c4[C@@]2(CCN3CC2CC2)[C@H]1O5)c1nccs1 [NTZ, 17-Cyclopropylmethyl-3,14β-dihydroxy-4,5α-epoxy-6α-(2′-thiazolylcarboxamido)morphinan hydrochloride] | – | – | – | – | – | 41.1 ± 3.58 | 0.25 ± 0.03 | 2.5 | 1.3 ± 0.12
